A word on the GI50: it is the concentration that inhibits growth by half. A high value points to lower sensitivity of the cells.

One test has as its system adult Drosophila. The experiment in a line: toxic effect on Drosophila adult (injection, unmoving flies). The conditions noted are these: for Number of Unmoving flies (%) Mean: 1 mM, 1h, adult flies injected (3.5 ng each), solvent 5. In kind it is in vivo, Drosophila melanogaster. The text has this:
We next tested the ability of the DDPs to affect the innate immune pathways, namely, the Toll and immune deficiency (IMD) pathways, which are the front line of defence against infection by microorganisms. […] Thus, we successfully found unique biological activity against Drosophila in 5 and 21, which may potentially be developed as insecticides.
Fig. 6 Biological activity against Drosophila. a Inhibitory effect of compound 21 on the IMD pathway Drosophila l(2)mbn cells were stimulated with heat-killed E. coli and the activity of the Attacin promoter, a read-out of the activation of the IMD pathway, was monitored by a luciferase assay. Data are means ± SEM of triplicate wells from a single experiment and are representative of two independent experiments. b Toxic effect of compound 5 on Drosophila adult. […] Data are the means ± SEM of triplicate samples from a single experiment and are representative of two independent experiments. Source data underlying Fig. 6a, b are provided in a Source Data file.
Policy information about cell lines […]
were distributed from National Cancer Institute (Frederick, MD). HT-29, MCF-7, DU-145 and PC-3 were purchased from American Type Culture Collection (Baltimore, MD). MKN-1, MKN-74, MKN-45, MKN-A and MKN-B were purchased from Immuno-Biological Laboratories, Co., Ltd., Gumma, Japan). St-4, HBC-4, HBC-5 and BSY-1 were established in Japanese Foundation for Cancer Research (Tokyo, Japan).
DL-1 and l(2)mbn were gifted from Dr. Kurata in Tohoku University.
MCF-7 (Fig.5 and Supplementary Fig. 46) were obtained from American Type Culture Collection.
HeLa-CD4-LTR/ !-galactosidase (MAGI) cells provided by Dr. J. Overbaugh through the NIH AIDS Research and Reference […]
PC-3) were authenticated by STR analysis.
DL-1 and l(2)mbn are Drosophila cell lines, and were not authenticated.
MCF-7 cells (for Fig. 5 and Supplementary Fig. 46) were authenticated by STR analysis to evaluate antiproliferative activity […]
MAGI cells were authenticated by the NIH.
Mycoplasma contamination All the cell lines tested negative for mycoplasma contamination. […]

The target in a further test is Aβ42 (Homo sapiens, UniProt P05067). The test can be described thus: TEM analysis of amyloid fibrils formed by Aβ42. In kind it is biochemical.
Chain of Aβ42 (P05067 672-713): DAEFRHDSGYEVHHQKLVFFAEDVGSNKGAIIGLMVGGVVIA
Another test concerns KM-12. The test can be described thus: cells. Also noted: JFCR39 human cancer cell line panel, antiproliferative dose response (optical density), GI50. The following applies: Homo sapiens, KM12. The method, then:
(§1) Initially, we evaluated new DDP analogues for their antiproliferative activities across the panel of 39 human cancer cell lines, JFCR39[50],[51]. […] Purified DDPs was dissolved in DMSO (Specially Prepared Reagent, Nuclease and Protease tested, NACALAI, 09659-14) to prepare 5 mM solutions. The Each DDP solution (5 mM) was used for antiproliferative effects on cancer cell lines (Supplementary Notes 23, 24, 25, 26), biological activity against Drosophila (Supplementary Note 27), anti-HIV assay (Supplementary Note 28) and screening of amyloid Ab42 aggregation inhibitors (Supplementary Notes 29).

A further test concerns MKN1. The experiment in a line: cells. Also noted: JFCR39 human cancer cell line panel, antiproliferative dose response (optical density), GI50. The conditions noted are these: Homo sapiens, MKN-1. The method, then:
as §1

In a further test the test system is SNB-75. The experiment in a line: cells. On the set-up: JFCR39 human cancer cell line panel, antiproliferative dose response (optical density), GI50. The following applies: Homo sapiens, SNB-75. The method, then:
as §1

The next test deals with MKN-A. The experiment in a line: cells. Also noted: JFCR39 human cancer cell line panel, antiproliferative dose response (optical density), GI50. The method, then:
as §1

A further test concerns MKN45. The experiment in a line: cells. On the set-up: JFCR39 human cancer cell line panel, antiproliferative dose response (optical density), GI50. The following applies: Homo sapiens, MKN-45. The method, then:
as §1

The subject of a further test is MKN74. The test can be described thus: cells. Also noted: JFCR39 human cancer cell line panel, antiproliferative dose response (optical density), GI50. The following applies: Homo sapiens, MKN-74. The method, then:
as §1

In another test the test system is LOX-IMVI. The test can be described thus: cells. Also noted: JFCR39 human cancer cell line panel, antiproliferative dose response (optical density), GI50. The conditions noted are these: Homo sapiens, LOX IMVI. The method, then: as §1
Another test has as its system NCI-H226. The test can be described thus: cells. On the set-up: JFCR39 human cancer cell line panel, antiproliferative dose response (optical density), GI50. The following applies: Homo sapiens, NCI-H226. The method, then: as §1
The subject of a further test is HBC-5. The test can be described thus: cells. On the set-up: JFCR39 human cancer cell line panel, antiproliferative dose response (optical density), GI50. The following applies: HBC5. The method, then:
as §1

The subject of the next test is RXF-631L. The test can be described thus: cells. On the set-up: JFCR39 human cancer cell line panel, antiproliferative dose response (optical density), GI50. The conditions noted are these: RXF-631L. As to the method: as §1
A further test concerns SK-OV-3. The test can be described thus: cells. Also noted: JFCR39 human cancer cell line panel, antiproliferative dose response (optical density), GI50. The conditions noted are these: Homo sapiens, SK-OV-3. The method, then:
as §1

Another test has as its system ACHN. The experiment in a line: cells. On the set-up: JFCR39 human cancer cell line panel, antiproliferative dose response (optical density), GI50. The conditions noted are these: Homo sapiens, ACHN. As to the method: as §1

For `C=C1CC[C@H]2[C@]3(C)C[C@@H](C=C(C)C)O[C@H]3CC[C@]2(C)[C@@H]1Cc1c(O)c(C)c(C)oc1=O` [Compound 5, subglutinol A], the “Number of Unmoving flies (%) Mean” value with adult Drosophila was 58.3333%. Further, the “paralysing activity against adult Drosophila” value with adult Drosophila (1 h after injection) was “efficiently paralysed adult Drosophila”.

As to `C=C1CCC2C(C)(CCC=C(C)C)C(O)CCC2(C)C1Cc1c(OC)oc(CO)c(C(=O)OC)c1=O` (centres unmarked) [Compound 13], the “formation of typical amyloid fibrils of Aβ42” value on Aβ42 is “strongly prevented”.

With `C=C1CC[C@@H]2[C@](C)(CC[C@H]3O[C@H](C=C(C)C)C[C@@]23C)[C@@H]1Cc1c(OC)oc(CO)c(C(=O)OC)c1=O` [Compound 21], the “Number of Unmoving flies (%) Mean” value in the test on adult Drosophila is recorded as 11.6667%. Besides, the “formation of typical amyloid fibrils of Aβ42” value at Aβ42 is recorded as “strongly prevented”.

For `C=C1CCC2C3(C)CC(C=C(C)C)OC3CCC2(C)C1Cc1c(OC)oc(C)c(C)c1=O` (centres unmarked) [Compound 23], the GI50 stood at 10.3 µM in the test with KM-12; 13.2 µM in the test with MKN1; 13.3 µM with SNB-75; 0.318 µM in the test with MKN-A; 11.1 µM in the test on MKN45; 4.22 µM with MKN74. In addition, the 50% growth inhibitory concentration (GI50) with LOX-IMVI amounted to 0.604 µM; with NCI-H226, 10.7 µM; in the test with HBC-5, 10.7 µM; with RXF-631L, 10.2 µM; in the test with SK-OV-3, 10.8 µM; with ACHN it was 11.8 µM.

For the compound `C=C1CC[C@H]2[C@]3(C)C[C@H](C=C(C)C)O[C@H]3CC[C@]2(C)[C@@H]1Cc1c(OC)oc(C)c(C)c1=O` [Compound 24], the concentration for 50% growth inhibition (GI50) in the test on KM-12 stood at 9.49 µM; with MKN1 it was 12.2 µM; in the test on SNB-75, 13.9 µM; with MKN-A it was 0.573 µM; with MKN45, 9.14 µM; with MKN74, 3.72 µM. Further, the GI50 in the test with LOX-IMVI is 0.929 µM; with NCI-H226, 10.6 µM; in the test with HBC-5 it was 10.7 µM; in the test on RXF-631L, 10.9 µM; with SK-OV-3, 10.7 µM; with ACHN it was 11.6 µM.

The values above are taken from publication PMC7156458, “Synthetic biology based construction of biological activity-related library of fungal decalin-containing diterpenoid pyrones” (Nature Communications, 2020).
